From patent US20230165861A1, “USE FOR PROTECTING OR MITIGATING RADIATION DAMAGE, AND FOR PREVENTING OR TREATING PULMONARY FIBROSIS” (KOREA INSTITUTE OF RADIOLOGICAL & MEDICAL SCIENCES, priority 2017, published 2023)

Tests used:
[1] = test system: lung tissue of a mouse animal model irradiated with 90 Gy; experiment: Inhibition test on tissue damage caused by radiation (H&E staining of lung tissue); assay type: in vivo; conditions: 10 mg/kg intraperitoneally one hour before 90 Gy chest irradiation; two weeks after irradiation; compared to non-treatment group (IR)
Protocol: The tissue of a mouse was fixed with 10% neutral formalin for one day, and a paraffin section was made. In order to remove the paraffin around the tissue, the tissue was allowed to react with a xylene solution and 95%, 90%, and 70% ethanol solutions in sequential order for 5 minutes each, and then immersed in a hematoxylin solution for 1 minute to stain the nuclei and then washed under running water for 10 minutes. Thereafter, the cytoplasm was stained by immersing the tissue in an eosin solution for 30 seconds. Thereafter, the tissue was immersed in 50%, 70%, 90%, and 95% ethanol solutions, and a xylene solution in sequential order, followed by dropping one drop of a mounting solution. Then, the tissue was covered with a cover slide and observed under a microscope (Carl Zeiss Vision). The lung tissue of a mouse animal model, in which the chest of the mouse was irradiated in a size of 3 mm with an intensity of 90 Gy, was fixed with 10% formalin, and a paraffin section was made. Thereafter, tissue inflammatory response and fibrosis were identified by using a hematoxylin and eosin staining method. Upon observing the tissue with this staining method, the cell nucleus is observed in blue and the cytoplasm in pink. One hour before irradiating the mouse animal model, 10 mg/kg of Dacomitinib was administered intraperitoneally. […]

[2] = test system: vascular wall in the lung tissue of a mouse animal model irradiated with 90 Gy; experiment: Inhibition test on in vivo vascular damage caused by radiation (vascular wall thickness, H&E staining); conditions: 10 mg/kg intraperitoneally one hour before 90 Gy chest irradiation; two weeks after irradiation; compared to non-treatment group (IR)
Protocol: The tissue of a mouse was fixed with 10% neutral formalin for one day, and a paraffin section was made. In order to remove the paraffin around the tissue, the tissue was allowed to react with a xylene solution and 95%, 90%, and 70% ethanol solutions in sequential order for 5 minutes each, and then immersed in a hematoxylin solution for 1 minute to stain the nuclei and then washed under running water for 10 minutes. Thereafter, the cytoplasm was stained by immersing the tissue in an eosin solution for 30 seconds. Thereafter, the tissue was immersed in 50%, 70%, 90%, and 95% ethanol solutions, and a xylene solution in sequential order, followed by dropping one drop of a mounting solution. Then, the tissue was covered with a cover slide and observed under a microscope (Carl Zeiss Vision). The lung tissue of a mouse animal model, in which the chest of the mouse was irradiated in a size of 3 mm with an intensity of 90 Gy, was fixed with 10% formalin, and a paraffin section was made. Thereafter, the tissue was stained with hematoxylin and eosin. Upon observing the tissue with this staining method, the cell nucleus is observed in blue and the cytoplasm in pink. One hour before irradiating the mouse animal model, 10 mg/kg of Dacomitinib was administered intraperitoneally. […]

[3] = test system: lung tissue of bleomycin-injected mouse; experiment: Inhibition test on tissue damage caused by bleomycin (bleomycin-induced pulmonary fibrosis model); assay type: in vivo; conditions: 10 mg/kg intraperitoneally one hour before 1.25 U/kg bleomycin into the airway; three weeks after injection; compared to non-treatment group
Protocol: The tissue of a mouse was fixed with 10% neutral formalin for one day, and a paraffin section was made. In order to remove the paraffin around the tissue, the tissue was allowed to react with a xylene solution and 95%, 90%, and 70% ethanol solutions in sequential order for 5 minutes each, and then immersed in a hematoxylin solution for 1 minute to stain the nuclei and then washed under running water for 10 minutes. Thereafter, the cytoplasm was stained by immersing the tissue in an eosin solution for 30 seconds. Thereafter, the tissue was immersed in 50%, 70%, 90%, and 95% ethanol solutions, and a xylene solution in sequential order, followed by dropping one drop of a mounting solution. Then, the tissue was covered with a cover slide and observed under a microscope (Carl Zeiss Vision). The tissue of a mouse was fixed with 10% neutral formalin for one day, and a paraffin section was made. In order to remove paraffin around the tissue, the tissue was allowed to react with a xylene solution and 95%, 90%, and 70% ethanol solutions in sequential order for 5 minutes each. For the antigen activation of the tissue, the tissue was immersed in a 0.1 M citric acid solution (pH 6.0) and then boiled for 20 minutes. […]

[4] = test system: γH2AX in irradiated lung tissue; experiment: Inhibition test on DNA damage caused by radiation (γH2AX immunostaining); assay type: in vivo, mouse; conditions: 10 mg/kg one hour prior to 90 Gy lung irradiation; compared to non-treatment group (IR)
Protocol: The tissue of a mouse was fixed with 10% neutral formalin for one day, and a paraffin section was made. In order to remove paraffin around the tissue, the tissue was immersed in a xylene solution and 100%, 95%, 90%, and 70% ethanol solutions in sequential order. For the antigen activation of the tissue, the tissue was immersed in a 0.1 M citric acid solution (pH 6.0) and boiled for 30 minutes, and then reacted with 3% hydrogen peroxide for 15 minutes. The tissue was allowed to react with γH2AX (abcam), which was diluted in 1:200 ratio in a PBS solution (including phosphate based saline buffer and 0.1% triton x-100), at 4° C. for 16 hours. After washing the tissue with PBS, a secondary antibody conjugated with biotin was diluted in 1:200 ratio and reacted with the tissue at room temperature for 30 minutes. After reacting the tissue with ABC (Avidin biotin complex) at room temperature for 30 minutes and color-developing 3,3′-DAB (3,3′-diaminobenzidine), the tissue was counterstained with hematoxylin. Subsequently, the tissue was immersed in 50%, 70%, 90%, 95%, and 100% ethanol solutions and a xylene solution in sequential order, followed by dropping one drop of a mounting solution. Then, the tissue was covered with a cover slide and observed under a microscope (Carl Zeiss Vision). […]

[5] = test system: pulmonary vascular endothelial cells of irradiated lung; experiment: Pulmonary fibrosis inhibition test in experimental animal model (trichrome staining of collagen); assay type: in vivo, C57BL/6 mouse; conditions: 10 mg/kg intraperitoneally one hour before 90 Gy lung irradiation; inner wall of the aorta of lung tissue; compared to irradiation group (IR)
Protocol: The tissue of a mouse was fixed with 10% neutral formalin for one day, and a paraffin section was made. In order to remove paraffin around the tissue, the tissue was allowed to react with a xylene solution and 95%, 90%, and 70% ethanol solutions in sequential order for 5 minutes each. For the antigen activation of the tissue, the tissue was immersed in a 0.1 M citric acid solution (pH 6.0) and then boiled for 20 minutes. Subsequently, the tissue was allowed to react with a Bouin's solution for 1 minute, Weigert's hematoxylin for 10 minutes, phoshotunstic/phosphomolydic acid for 10 minutes, aniline blue for 5 minutes, and 1% acetic acid for 1 minute in sequential order. Thereafter, a dehydration process was performed, and then the tissue was covered with a cover glass and observed under a microscope (Carl Zeiss Vision). In order to observe whether a phenomenon of pulmonary fibrosis of vascular endothelial cells is shown as the symptom of pulmonary fibrosis occurred after radiotherapy, the site of the lung of a C57BL/6 mouse was topically irradiated with an intensity of 90 Gy. After excising the lung from the mouse, the cross-section of the aorta of the lung tissue was stained by a trichrome staining method in order to identify collagen which is a protein shown upon fibrosis of the pulmonary vascular endothelial cells. […]

## COc1cc2ncnc(Nc3ccc(F)c(Cl)c3)c2cc1NC(=O)/C=C/CN1CCCCC1 [Dacomitinib, (2E)-N-{4-[(3-chloro-4-fluorophenyl)amino]-7-methoxy-6-quinazolinyl}-4-(1-piperidinyl)-2-but enamide]
[1]
  infiltration of the inflammatory cells and the fibrotic matrix around blood vessels: remarkably reduced
[2]
  thickness of the vascular wall: remarkably reduced
[3]
  pathological characteristics such as infiltration of inflammatory cells, fibrous nodules, interstitial thickening: remarkably inhibited
[4]
  expression of γH2AX according to the DNA damage: remarkably reduced
[5]
  blue sites of collagen (protein associated with pulmonary fibrosis), trichrome staining: remarkably reduced
